{
  "source": "paper PMC12259270",
  "about": "“Sensory neuron–expressed FGF13 controls nociceptive signaling in diabetic neuropathy models” (The Journal of Clinical Investigation, 2025)",
  "key": {"C57BL/6 mice [1]": {"test_system": "C57BL/6 mice", "assay": "Thermal sensitivity (Hargreaves radiant heat) after intraplantar injection, mice without capsaicin", "type": "in vivo, mouse", "experimental": "(§1) Experiments were performed on 6- to 12-week-old male C57BL/6 mice (The Jackson Laboratory, Bar Harbor, ME) housed in the AAALAC-accredited facility at the University of Texas Medical Branch. Mice were group-housed with up to 5 mice per cage on a 12-to-12-hour light–dark cycle and had access to water and food ad libitum. All protocols were approved by the Institutional Animal Care and Use Committee (IACUC) at the University of Texas Medical Branch and in accordance with the National Institutes of Health (NIH) guidelines.\nPW164 and ZL192 were dissolved in DMSO and saline in a ratio of 1:10. 0.1% capsaicin (10% ethanol, 10% Tween-20 in saline; Sigma-Aldrich). All the compounds were injected at the center of the hind paw. The control group received a DMSO-saline mixture. […]\n(§2) AAV2 viral particles packaged by the University of North Carolina Gene Therapy Core Facility (viral titer ranging […]\nBefore intrathecal injections in the lumbar region, mice were maintained in an anesthetizing box with 2% isoflurane to induce unconsciousness. Six microliters of viral vector were gently injected into the CSF through a 30-gauge needle with a Hamilton syringe in the lumbar area between vertebrae L4 and L5 by gently gripping the iliac crest of the mouse and inserting the needle with an angle of 45°. The correct procedure was confirmed by the mouse’s tail reflexiv e flick. […]\nAssessment of thermal sensitivity\nPlantar tests for thermal sensitivity were performed using the Hargreaves apparatus (Ugo Basile, Italy) in mice that were either naïve or received i.p. injection of capsaicin or test compound. A thermal stimulus, generated by an infrared-focused light source, invisible to the rodent, was applied through a glass pane, to the plantar surface of the hind paw of the animal. The response to this stimulus was considered the withdrawal of the stimulated paw (lifting and licking). Light intensity was set up at 30% and the cut-off at the 20 s. The final value of thermal withdrawal latency, expressed in seconds, was the average value of three consecutive trials. […]"}, "[2]": {"settings": "mouse, in vivo"}, "[3]": {"assay": "Blood pressure and body weight after dosing, C57BL/6 mice", "settings": "for Diastolic / MAP / Systolic / Body weight, Pre-dose / Body weight, Terminal: PW164 15 mpk i.d."}, "C57BL/6 mice [4]": {"test_system": "C57BL/6 mice", "assay": "Thermal hypersensitivity induced by intrathecal AAV2-FGF13-GFP (Hargreaves)", "type": "in vivo, mouse", "experimental": "Next, the in vivo PW164 strategy was applied to test ZL192 activity in mice that received i.t. injection (L4-L6) of either AAV2-shCTRL or AAV2-shFGF13 viral particles (10 μL; Figure 6B).\nas §1\nPW164 and ZL192 were dissolved in DMSO and saline in a ratio of 1:10. 0.1% capsaicin (10% ethanol, 10% Tween-20 in saline; Sigma-Aldrich). All the compounds were injected at the center of the hind paw. The control group received a DMSO-saline mixture. 0.1% capsaicin was injected at the center of the hind paw and then PW164 (0.07 mg/ml) or DMSO was intradermally administered at the site of capsaicin injection Capsaicin was prepared from 1% (wt/vol) capsaicin stock solution dissolved in 100% ethanol, and 0.1% of diluted stock was made using tween-80 and saline solution at a 1:1:8 ratio. Bupivacaine was prepared from a 1:2 dilution with sterile 0.9% saline and locally injected in the center of the paw at 7 mg/ml.\nas §2\nBefore intrathecal injections in the lumbar region, mice were maintained in an anesthetizing box with 2% isoflurane to induce unconsciousness. […]\nMechanical sensitivity was assessed using von Frey filaments (VFF 0.1g and 1.0 g force) in mice that were either naïve or received intraplantar ([…].) injection of capsaicin. […]"}, "[5]": {"settings": "0h after dosing, individual No. 85, 87, 88, 89, 91, 15 mg/kg"}, "[6]": {"settings": "2h after dosing, individual No. 85, 87, 88, 89, 91, 15 mg/kg"}, "[7]": {"settings": "8h after dosing, individual No. 85, 87, 88, 89, 91, 15 mg/kg"}, "[8]": {"settings": "individual No. 85, 87, 88, 89, 91, 15 mg/kg"}},
  "note": "“And” between values parts separate entries of the source, which are not always exact repeats. Identical values can stand only once. Residues, ends and D or L forms follow the SMILES beside them. *: point of attachment. Cbz = O=C(OCc1ccccc1)*; NHPh = c1ccc(N*)cc1; OtBu = CC(C)(C)O*",
  "data": [
    {"smiles": "COC(=O)[C@@H](NC(=O)[C@H](CCC(=O)OC(C)(C)C)NC(=O)[C@H](CC(C)C)NC(=O)[C@@H]1CCCN1C(=O)OCc1ccccc1)C(C)C", "note": "[PW164] (Cbz-PLE(OtBu)V-OMe)", "values": [
      {"measurement": "thermal hindpaw withdrawal thresholds (latency), normal sensitivity", "setting": "C57BL/6 mice [1]; WT mice, i.pl., radiant heat test", "result": "Neither did PW164 affect thermal hindpaw withdrawal thresholds"},
      {"measurement": "brain/plasma ratio", "setting": "[2]", "result": 0},
      {"measurement": "volume of distribution (Vz)", "setting": "[2]", "result": "3.8 ± 0.71", "unit": "L/kg"},
      {"measurement": "Tmax", "setting": "[2]; 15 mg/kg", "result": 0.083},
      {"measurement": "Diastolic", "setting": "[3]; 0h after dosing, Mean", "result": 81},
      {"measurement": "MAP", "setting": "[3]; 0h after dosing, Mean", "result": 92},
      {"measurement": "Systolic", "setting": "[3]; 0h after dosing, Mean", "result": 114},
      {"measurement": "Diastolic", "setting": "[3]; [5]", "result": "95 and 77 and 98 and 72 and 63"},
      {"measurement": "MAP", "setting": "[3]; [5]", "result": "105 and 81 and 78 and 103 and 92"},
      {"measurement": "Systolic", "setting": "[3]; [5]", "result": "120 and 101 and 108 and 118 and 121"},
      {"measurement": "Diastolic", "setting": "[3]; 2h after dosing, Mean", "result": 74},
      {"measurement": "MAP", "setting": "[3]; 2h after dosing, Mean", "result": 85},
      {"measurement": "Systolic", "setting": "[3]; 2h after dosing, Mean", "result": 109},
      {"measurement": "Diastolic", "setting": "[3]; [6]", "result": "75 and 64 and 68 and 76 and 85"},
      {"measurement": "MAP", "setting": "[3]; [6]", "result": "86 and 76 and 79 and 92 and 93"},
      {"measurement": "Systolic", "setting": "[3]; [6]", "result": "107 and 100 and 103 and 125 and 111"},
      {"measurement": "Diastolic", "setting": "[3]; 8h after dosing, Mean", "result": 81},
      {"measurement": "MAP", "setting": "[3]; 8h after dosing, Mean", "result": 93},
      {"measurement": "Systolic", "setting": "[3]; 8h after dosing, Mean", "result": 119},
      {"measurement": "Diastolic", "setting": "[3]; [7]", "result": "78 and 94 and 81 and 74 and 76"},
      {"measurement": "MAP", "setting": "[3]; [7]", "result": "89 (3×) and 103 and 95"},
      {"measurement": "Systolic", "setting": "[3]; [7]", "result": "114 and 121 and 123 and 120 and 117"},
      {"measurement": "Body weight, Pre-dose", "setting": "[3]; Mean", "result": 25.3, "unit": "g"},
      {"measurement": "Body weight, Terminal", "setting": "[3]; Mean", "result": 24.8, "unit": "g"},
      {"measurement": "Body weight, Pre-dose", "setting": "[3]; [8]", "result": "25.7 g and 27.0 g and 24.4 g (2×) and 25.0 g"},
      {"measurement": "Body weight, Terminal", "setting": "[3]; [8]", "result": "24.9 g and 26.8 g and 23.9 g and 23.8 g and 24.5 g"},
      {"measurement": "blood pressure or body weight changes", "setting": "[3]; up to 8 hours after injection", "result": "No changes"},
      {"measurement": "duration of rescue in AAV2-FGF13-GFP mice", "setting": "C57BL/6 mice [4]; PW164 5 μL, 0.7 mg/mL", "result": "up to 2.5 hours"},
      {"measurement": "thermal hypersensitivity in AAV2-FGF13-GFP mice", "setting": "C57BL/6 mice [4]; bupivacaine 7 mg/mL (5 μL), Suppl Fig 15B", "result": "Complete recovery"},
      {"measurement": "thermal hypersensitivity in AAV2-FGF13-GFP mice", "setting": "C57BL/6 mice [4]; day 68, PW164 5 μL, 0.7 mg/mL", "result": "partial rescue"}
    ]},
    {"smiles": "CC(=O)N[C@@H](Cc1ccccc1)C(=O)N[C@@H](CC(C)C)C(=O)N1CCC[C@H]1C(=O)N[C@@H](CCCCN)C(=O)Nc1ccccc1", "note": "[ZL192] (Ac-FLPK-NHPh)", "values": [
      {"measurement": "thermal hypersensitivity in AAV2-shFGF13 mice", "setting": "C57BL/6 mice [1]; ZL192 0.18 mg/mL, i.pl.", "result": "absent"},
      {"measurement": "thermal sensitivity in AAV2-shCTRL mice", "setting": "C57BL/6 mice [1]; ZL192 0.18 mg/mL, i.pl.", "result": "caused mechanical and thermal hypersensitivity"},
      {"measurement": "thermal sensitivity", "setting": "C57BL/6 mice [1]; naive WT mice, ZL192 i.pl. 0.06 or 0.18 mg/mL", "result": "also seen"}
    ]}
  ]
}
